This note sets out measurements from US9814787B2, “Luciferin amides” (University of Massachusetts, priority 2013, dated 2017).

Each structure is given as a SMILES string.

Experiment [1] deals with FVB mice expressing luciferase in brain tissue. In words: In vivo bioluminescence imaging in brains of FVB mice injected with AAV9-luc+ in the striatum. The procedure:
(§1) FVB mice were injected with AAV9-luc+ in the brain striatum. Bioluminescence assays were performed approximately nine months after AAV injection. Each luciferin amide was diluted into PBS to the indicated concentration from a 50 mM DMSO stock solution and filtered (0.22 μm) prior to intraperitoneally injection (0.1 mL per mouse). Mice were anesthetized with isoflurane (2% in 1 L/min oxygen) and images acquired on a Xenogen IVIS 100 imaging system and analyzed with Living Image software.
Certain luciferin amides described herein were tested to determine whether they would image well in live mice. For these studies, FVB mice were injected with adeno-associated virus 9 (AAV9)-luciferase constructs into the brain striatum.
Bioluminescence imaging (BLI) in the brain is more challenging than imaging in the rest of the organism, in part because a luciferase substrate (i.e., a luciferin) must cross the blood-brain barrier. Therefore, the ability of a synthetic luciferin (i.e., Compound 9's corresponding luciferin (CycLuc1)) to allow bioluminescence imaging in these mice, as compared to the native firefly luciferase substrate (i.e., D-luciferin) was first tested. Specifically, each substrate was injected intraperitoneally (IP) in PBS at a volume of 0.1 mL, D-luciferin being at a concentration of 100 mM and CycLuc1 being at a concentration of 5 mM. […] CycLuc1 was then injected at a 320-fold lower dose (0.06 mL of 0.5 mM) than D-luciferin.
Specifically, Compound 9 (i.e., CycLuc1 amide) was injected at 0.5 mM in 0.5% DMSO/PBS (0.06 mL).
In this figure, mice in the top row were treated with luciferin amides in the amounts indicated in the figure, and the mice in the bottom row were the same mice that were imaged one day later using a standard dose of D-luciferin.

For experiment [2], the target named is T1, FAAH (Homo sapiens, UniProt O00519).
T1 construct: purchased Cayman Chemical
T1 sequence (O00519 1-579): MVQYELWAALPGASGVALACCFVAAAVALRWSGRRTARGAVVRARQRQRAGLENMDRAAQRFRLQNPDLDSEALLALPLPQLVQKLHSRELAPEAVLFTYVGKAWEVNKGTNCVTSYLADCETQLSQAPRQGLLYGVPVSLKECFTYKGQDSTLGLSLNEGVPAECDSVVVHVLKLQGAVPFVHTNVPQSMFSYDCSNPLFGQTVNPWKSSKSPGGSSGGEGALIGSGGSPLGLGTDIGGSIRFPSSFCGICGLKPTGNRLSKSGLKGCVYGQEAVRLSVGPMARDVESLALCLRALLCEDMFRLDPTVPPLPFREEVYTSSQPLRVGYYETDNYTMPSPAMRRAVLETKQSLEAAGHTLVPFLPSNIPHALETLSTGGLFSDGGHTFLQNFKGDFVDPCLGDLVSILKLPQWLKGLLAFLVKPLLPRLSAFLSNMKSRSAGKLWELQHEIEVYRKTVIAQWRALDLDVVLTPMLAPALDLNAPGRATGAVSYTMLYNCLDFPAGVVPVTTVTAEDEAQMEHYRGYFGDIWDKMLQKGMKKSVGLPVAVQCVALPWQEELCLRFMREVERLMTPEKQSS
Kind of experiment: In vitro FAAH assay: luciferin amide treated with recombinant FAAH, then R218K luciferase, bioluminescence. It counts as biochemical. As for the experimental part:
Recombinant FAAH, FAAH assay buffer, and FAAH inhibitors URB-597, PF-750, and PF-3845 were purchased from Cayman Chemical.
Bioluminescence assays were performed in either a Turner Veritas luminometer or a Xenogen IVIS-100 imaging system. For Veritas experiments, white 96-well plates were used (Costar 3912). For IVIS experiments, black 96-well plates were used (Costar 3915).
Luciferin amides (50 μM) were treated with FAAH and FAAH buffer (Cayman Chemical) in the presence or absence of 50 μM FAAH inhibitor URB-597 or 50 μM luciferase inhibitor 2-(4′-methoxyphenyl)benzothiazole. After 10 minutes at room temperature, R218K mutant firefly luciferase was added at a concentration of 3 μg/mL and bioluminescence was detected on a Turner Veritas luminometer.
Four luciferin amides (50 μM), i.e., Compounds 1, 9, 10, and 25, were treated with a buffer alone, a buffer containing FAAH, a buffer containing FAAH+50 μM URB-597 (i.e., a FAAH inhibitor), or a buffer containing FAAH+50 μM luciferase inhibitor 2-(4′-methoxyphenyl)benzothiazole. After 10 minutes at room temperature, R218K luciferase was added at a concentration of 3 μg/mL and bioluminescence was detected on a Turner Veritas.
(§2) Three luciferin amides (50 μM), i.e., Compounds 2, 9, and 25, were treated with a buffer alone, a buffer containing FAAH, a buffer containing FAAH 1:10 (i.e., a ten-fold dilution of FAAH), a buffer containing pig liver esterase (PLE), or a buffer containing PLE 1:10 (i.e., a ten-fold dilution of PLE). After one hour at room temperature, R218K luciferase was added at a concentration of 3 μg/mL and bioluminescence was detected on a Turner Veritas.

For another experiment, the system named is pig liver esterase (PLE). In words: Treatment of luciferin amides with pig liver esterase, then R218K luciferase, bioluminescence. In kind it is biochemical. The conditions noted are these: 50 μM luciferin amide, PLE and PLE 1:10, one hour at room temperature. As for the experimental part:
as §2

The target of experiment [3] is T2, FAAH (Mus musculus, UniProt O08914).
T2 construct: metabolized into CycLuc1 by endogenous FAAH activity; from tissue; host or cells: brain (striatum) of live FVB mice expressing AAV9-delivered luciferase
T2 sequence (O08914 1-579): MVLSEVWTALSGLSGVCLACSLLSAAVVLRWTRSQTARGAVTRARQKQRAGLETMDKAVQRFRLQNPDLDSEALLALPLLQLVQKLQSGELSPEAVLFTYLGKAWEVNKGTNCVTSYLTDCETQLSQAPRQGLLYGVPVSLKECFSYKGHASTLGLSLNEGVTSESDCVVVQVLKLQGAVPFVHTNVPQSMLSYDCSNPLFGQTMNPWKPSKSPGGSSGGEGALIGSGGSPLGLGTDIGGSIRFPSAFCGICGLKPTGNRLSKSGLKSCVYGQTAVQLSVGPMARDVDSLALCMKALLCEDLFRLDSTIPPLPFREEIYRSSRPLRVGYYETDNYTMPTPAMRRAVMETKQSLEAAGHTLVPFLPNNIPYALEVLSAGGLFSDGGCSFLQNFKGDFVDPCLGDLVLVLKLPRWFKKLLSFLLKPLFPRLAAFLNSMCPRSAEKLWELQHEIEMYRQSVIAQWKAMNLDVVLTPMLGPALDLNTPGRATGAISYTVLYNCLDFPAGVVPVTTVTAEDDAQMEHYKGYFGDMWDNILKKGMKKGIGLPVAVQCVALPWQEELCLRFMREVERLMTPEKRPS
In words: In vivo FAAH inhibition assay with PF-3845. Also noted: species or system mice. The conditions noted are these: for total photon flux, average: 0.1 mM (0.1 mL) IP; for change of light output by FAAH inhibitor PF-3845 (group 1 vs group 2): PF-3845 1 mg/mL (0.1 mL) IP 30 minutes before substrate. The procedure:
as §1
Mice were injected intraperitoneally with 1 mg/mL of a specific FAAH inhibitor PF-3845 dissolved in 18:1:1 PBS:ethanol:emulphor (0.1 mL), or with an equal volume of 18:1:1 PBS:ethanol:emulphor control vehicle. Thirty minutes after injection, the mice were imaged as described above.
FAAH is highly expressed in most tissues, particularly in the brain. To determine whether the luciferin amides are cleaved exclusively by FAAH in the brain tissue, eight FVB mice expressing AAV9-luciferase in the striatum were divided into two groups: (1) four mice were injected IP with 1 mg/mL of a specific FAAH inhibitor PF-3845 dissolved in 18:1:1 PBS:ethanol:emulphor (0.1 mL), and (2) four mice were treated with an equal volume of 18:1:1 PBS:ethanol:emulphor control vehicle without PF-3845. After 30 minutes, one mouse from each group was IP injected with 5 mM CycLuc1 (i.e., Compound 9's corresponding luciferin) in PBS (0.1 mL), and three were injected with 0.1 mM Compound 5 in 0.2% DMSO/PBS (0.1 mL). The mice were imaged 10 minutes after substrate injection. Mice in the right panel were group (1) (i.e., treated with a FAAH inhibitor) and mice in the left panel were from group (2) (i.e., without being treated with a FAAH inhibitor).

In experiment [4] the test system is live CHO cells expressing R218K luciferase. Kind of experiment: Intact cell FAAH assay, light emission from live CHO cells expressing R218K luciferase. The conditions noted are these: 50 μM FAAH inhibitor. It counts as cell-based, Chinese hamster. The procedure:
Chinese hamster ovary-K1 (CHO-K1) cells were grown in a CO2 incubator at 37° C. with 5% CO2 and were cultured in F-12K Nutrient Mixture (GIBCO) supplemented with 10% fetal bovine serum and 100 U/mL penicillin/streptomycin.
Wild-type and R218K mutant luciferases were cloned into the BamHI-NotI site of pCDNA 3.1 and transiently transfected into CHO-K1 cells with Lipofectamine 2000 in 96-well tissue culture-treated plates for intact cell assays, or 6-well plates for lysed cell assays. For intact cells, 0.075 μg plasmid/well was transfected; for lysed cells, 2.25 μg plasmid/well was transfected.
[…] The cells were incubated for one hour in the CO2 incubator at 37° C. Cells were then washed with Hank's balanced salt solution (HBSS) and overlaid with 60 μL a luciferin amide substrate in HBSS. Imaging assays were performed 3 minutes after substrate addition, with final substrate concentrations ranging from 0.122 to 250 μM.
Seven luciferin amides, i.e., Compounds 1-4, 9, 10, and 25, were tested in live CHO cells expressing R218K luciferase at various concentrations (i.e., 0.12 μM, 0.25 μM, 0.5 μM, 1 μM, 2 μM, 4 μM, 8 μM, 16 μM, 31 μM, 62 μM, 125 μM, and 250 μM).
Compound 25 and Compound 10, as well as their corresponding luciferins (i.e., D-Luciferin and CycLuc2, respectively), were tested in live CHO cells expressing wild-type (WT) luciferase or R218K (RK) luciferase at various concentrations (i.e., 0.125 μM, 0.25 μM, 0.5 μM, 1 μM, 2 μM, 4 μM, 8 μM, 16 μM, 31 μM, 62 μM, 125 μM, and 250 μM).

Regarding `CNc1ccc2nc(C3=N[C@@H](C(N)=O)CS3)sc2c1` [Compound 1, (S)-4,5-dihydro-2-(6-(methylamino)benzo[d]-thiazol-2-yl)thiazole-4-carboxamide], the “light emission in brains of live mice (qualitative)” value in experiment [1] (mouse, in vivo) is “relatively strong light emission”. For the same molecule, at FAAH [2] (50 μM luciferin amide, 10 minutes at room temperature, R218K luciferase 3 μg/mL), the “increase in bioluminescence signal on addition of FAAH versus buffer” value is on record as 167 fold.

Regarding `CN(C)c1ccc2nc(C3=N[C@@H](C(N)=O)CS3)sc2c1` [Compound 2, (S)-2-(6-(dimethylamino)benzo[d]thiazol-2-yl)-4,5-dihydrothiazole-4-carboxamide], on FAAH [2] (50 μM luciferin amide, FAAH vs FAAH 1:10, one hour at room temperature), the “effect of ten-fold dilution of FAAH on bioluminescent signal” value is reported as “corresponding reduction in the intensity of the bioluminescent signal”. Further, in the experiment with pig liver esterase (PLE), the “bioluminescence signal after treatment with PLE” value is “failed to elicit a bioluminescence signal”.

Take `CC(C)Nc1ccc2nc(C3=N[C@@H](C(N)=O)CS3)sc2c1` [Compound 5, (S)-4,5-dihydro-2-(6-(isopropylamino)-benzo[d]thiazol-2-yl)thiazole-4-carboxamide]: the “Photon flux after treatment with luciferin analogs” value in experiment [1] (4 μM) stood at 2.97E+05 p/s; in experiment [1] (20 μM), 1.95E+06 p/s; in experiment [1] (100 μM) it was 7.84E+06 p/s; in experiment [1] (500 μM), 1.19E+07 p/s. Moreover, the “signal as share of the D-luciferin signal” value in experiment [1] (4 μM, 25,000-fold lower dose) is given as about 30%. The “photon flux relative to standard 100 mM D-luciferin” value in experiment [1] (IP, 20 μM, 5000-fold lower dose) is listed as “higher photon flux than the standard 100 mM D-luciferin”. Further, in experiment [1] (doses 200-fold and 1000-fold lower than standard D-luciferin dose), the “bioluminescence signal higher than standard D-luciferin imaging conditions” value is 5 fold. Moreover, the entries for the “total photon flux, average” value on FAAH [3] (group (1) treated with PF-3845) and at FAAH [3] (group (2) vehicle without PF-3845) were 4.4×10^4 p/s and 1.3×10^7 p/s, respectively. Moreover, at FAAH [3], the “change of light output by FAAH inhibitor PF-3845 (group 1 vs group 2)” value is listed as “reduced by nearly three orders of magnitude”.

As for `O=C(O)[C@H]1CSC(c2nc3cc4c(cc3s2)NCC4)=N1` [CycLuc1, reference compound], the “persistence of signal relative to D-luciferin” value in experiment [1] (0.06 mL of 0.5 mM) is recorded as “persisted for a longer time”. Also, in experiment [1] (IP, 0.1 mL of 5 mM), the duration of signal entry is “over 2 hours” and the “time of peak signal” value is about 10 min. In experiment [1] (IP, 0.1 mL of 5 mM in PBS, 20-fold lower dose), the “brain bioluminescence signal relative to D-luciferin (0.1 mL of 100 mM)” value was “an order of magnitude higher signal than D-luciferin”. For the same molecule, on FAAH [3] (5 mM in PBS (0.1 mL) IP, groups (1) PF-3845 and (2) vehicle, 10 minutes after substrate), the total photon flux is 9×10^6 p/s. For the same molecule, at FAAH [3], the “change of light output by FAAH inhibitor PF-3845 (group 1 vs group 2)” value is “unchanged”.

For the molecule `CN1CCc2cc3nc(C4=N[C@@H](C(=O)O)CS4)sc3cc21` [CycLuc2, reference compound], the “effect of FAAH inhibitors URB-597, PF-750 and PF-3845 on light output” value in experiment [4] is recorded as “no significant effect”.

Turning to `NC(=O)c1cccc(-c2cccc(OC(=O)NC3CCCCC3)c2)c1` [URB-597, reference compound], the “inhibition of the FAAH-dependent bioluminescence signals of Compounds 1, 9, 10, 25 by FAAH inhibitor” value at FAAH [2] (50 μM URB-597, 50 μM luciferin amide) is recorded as “more than 100 fold”.
